Results as given in patent US9174942B2, “IDO inhibitors” (NewLink Genetics Corporation, priority 2008, dated 2015).

Molecular target: T1, purified human IDO protein (Homo sapiens, UniProt P14902, E119G/P110S)
T1 construct: 6-Histidine tag (C); made in house; host or cells: E. coli M15(pREP4) transformed with pQE70-hIDO
Assay: Enzymatic IDO assay (kynurenine formation, absorbance at 480 nm)
Assay type: biochemical
Conditions: recombinant human IDO, 200 μM L-tryptophan, pH 6.5; reported in ranges
Description: The inhibitors were initially diluted in DMSO at 100 mM and were diluted in potassium phosphate 50 mM, added to the reaction mixture at final concentrations raging from 1 mM to 5 nM and preincubated with the enzyme for 5 min at 25° C. The reaction was started by addition of L-tryptophan to 200 μM and incubated 15 min at 37° C. The reaction was stopped by addition of 0.5 vol of 30% trichloroacetic acid and incubated 30 min at 60° C. to hydrolyze N-formylkynurenine to kynurenine. The reaction was centrifuged at 3400 g for 5 min to remove precipitated protein and the supernatant was reacted with 2% (w/v) of p-dimethylaminobenzaldehyde in acetic acid. The reaction was incubated 10 min at 25° C. and read at 480 nm in a spectrophotometer. […] Nonlinear regressions and determination of the IC50 values were performed using the GraphPad Prism 4 software.

T1 sequence (P14902 whole entry P110S/E119G): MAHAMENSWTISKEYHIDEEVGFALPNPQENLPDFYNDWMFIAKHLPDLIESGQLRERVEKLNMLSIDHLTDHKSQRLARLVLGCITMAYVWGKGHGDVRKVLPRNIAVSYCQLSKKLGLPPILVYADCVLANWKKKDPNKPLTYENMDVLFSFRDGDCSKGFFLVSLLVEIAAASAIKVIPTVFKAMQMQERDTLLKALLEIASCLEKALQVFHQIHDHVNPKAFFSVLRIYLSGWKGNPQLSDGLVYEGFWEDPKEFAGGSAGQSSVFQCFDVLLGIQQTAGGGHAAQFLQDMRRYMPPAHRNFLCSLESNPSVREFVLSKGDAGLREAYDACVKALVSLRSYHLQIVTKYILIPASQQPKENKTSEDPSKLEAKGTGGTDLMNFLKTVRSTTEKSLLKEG

IC50	Structure (SMILES)
20 to 100 µM	Brc1ccc(-c2c[nH]cn2)cc1 [Compound 70, 5-(4-bromophenyl)-1H-imidazole]
20 to 100 µM	O=C1c2ccccc2CC1Oc1ccccc1-c1c[nH]cn1 (stereo not drawn) [Compound 159, 2-(2-(1H-imidazol-4-yl)phenoxy)-2,3-dihydro-1H-inden-1-one]
< 20 µM	Oc1ccc(F)cc1-c1cc[nH]n1 [Compound 36, 4-fluoro-2-(1H-pyrazol-3-yl)phenol]
< 20 µM	CC(C)(C)OC(=O)Nc1ccccc1-c1c[nH]cn1 [Compound 152, tert-butyl 2-(1H-imidazol-4-yl)phenylcarbamate]
< 20 µM	Clc1ccccc1Cn1cncc1-c1ccccc1 [Compound 52, 1-(2-chlorobenzyl)-5-phenyl-1H-imidazole]
100 to 500 µM	CC(C)(C)CCn1cncc1-c1ccccc1OCc1ccc(Cl)cc1 [Compound 106, 5-(2-(4-chlorobenzyloxy)phenyl)-1-(3,3-dimethylbutyl)-1H-imidazole]
20 to 100 µM	Clc1ccc(Cn2cncc2-c2ccccc2)cc1 [Compound 54, 1-(4-chlorobenzyl)-5-phenyl-1H-imidazole]
20 to 100 µM	Cc1ccc(COc2ccccc2-c2c[nH]cn2)cc1 [Compound 66, 4-(2-(4-methylbenzyloxy)phenyl)-1H-imidazole]
20 to 100 µM	O=[N+]([O-])c1ccc(Cn2cncc2-c2ccccc2)cc1 [Compound 85, 1-(4-nitrobenzyl)-5-phenyl-1H-imidazole]
< 20 µM	CC(=O)Nc1cccc(CCOc2ccccc2-c2c[nH]cn2)c1 [Compound 40, N-(3-(2-(2-(1H-imidazol-4-yl)phenoxy)ethyl)phenyl) acetamide]
20 to 100 µM	N#Cc1ccc(COc2ccccc2-c2c[nH]cn2)cc1 [Compound 55, 4-((2-(1H-imidazol-4-yl)phenoxy)methy)benzonitrile]
< 20 µM	Cc1ccccc1COc1ccccc1-c1c[nH]cn1 [Compound 37, 4-(2-(2-methylbenzyloxy)phenyl)-1H-imidazole]
< 20 µM	NS(=O)(=O)c1ccc(COc2ccccc2-c2c[nH]cn2)cc1 [Compound 46, 4-((2-(1H-imidazol-4-yl)phenoxy)methyl) benzenesulfonamide]
100 to 500 µM	CC(=O)N1CCC(COc2ccccc2-c2c[nH]cn2)CC1 [Compound 100, 1-(4-((2-(1H-imidazol-4-yl)phenoxy)methyl)piperidin-1-yl)ethanone]
< 20 µM	CC(=O)NCCC(C)(C)CCOc1ccccc1-c1c[nH]cn1 [Compound 53]
20 to 100 µM	CCOC(=O)c1ccccc1-c1c[nH]cn1 [Compound 80, ethyl 2-(1H-imidazol-4-yl)benzoate]
20 to 100 µM	Clc1ccc(CCOc2ccccc2-c2c[nH]cn2)cc1 [Compound 61, 4-(2-(4-chlorophenethoxy)phenyl)-1H-imidazole]
20 to 100 µM	O=[N+]([O-])c1cccc(Cn2cncc2-c2ccccc2)c1 [Compound 95, 1-(3-nitrobenzyl)-5-phenyl-1H-imidazole]
100 to 500 µM	O=C(O)c1ccccc1-c1c[nH]cn1 [Compound 153, 2-(1H-imidazol-4-yl)benzoic acid]

IC50	Structure (SMILES)
20 to 100 µM	OCc1ccccc1-c1c[nH]cn1 [Compound 78, (2-(1H-imidazol-4-yl)phenyl)methanol]
100 to 500 µM	Oc1ccc(Cn2cncc2-c2ccccc2)cc1 [Compound 125, 4-((5-phenyl-1H-imidazol-1-yl)methyl)phenol]
< 20 µM	Clc1cccc(COc2ccccc2-c2cnc[nH]2)c1 [Compound 29, 5-(2-(3-chlorobenzyloxy)phenyl)-1H-imidazole]
20 to 100 µM	COC(=O)CCC(C)(C)CCOc1ccccc1-c1c[nH]cn1 [Compound 79, methyl 6-(2-(1H-imidazol-4-yl)phenoxy)-4,4-dimethylhexanoate]
100 to 500 µM	COc1cccc(OC)c1-c1c[nH]cn1 [Compound 103, 5-(2,6-dimethoxyphenyl)-1H-imidazole]
20 to 100 µM	CNC(=O)Cc1cccc(COc2ccccc2-c2c[nH]cn2)c1 [Compound 57, 2-(3-((2-(1H-imidazol-4-yl)phenoxy)methyl)phenyl)-N-methylacetamide]
< 20 µM	CC(=O)N1CCC(CCOc2ccccc2-c2c[nH]cn2)CC1 [Compound 151, 1-(4-(2-(2-(1H-imidazol-4-yl)phenoxy)ethyl)piperidin-1-yl)ethanone]
100 to 500 µM	O=CNCCOc1ccccc1-c1c[nH]cn1 [Compound 107, N-(2-(2-(1H-imidazol-4-yl)phenoxy)ethyl)formamide]
20 to 100 µM	Cc1ccc(Cn2cncc2-c2ccccc2)cc1 [Compound 72, 1-(4-methylbenzyl)-5-phenyl-1H-imidazole]
20 to 100 µM	COc1ccc(Cn2cncc2-c2ccccc2)cc1 [Compound 68, 1-(4-methoxybenzyl)-5-phenyl-1H-imidazole]
20 to 100 µM	CC(C)(C)OC(=O)N1CCC(CCOc2ccccc2-c2c[nH]cn2)CC1 [Compound 150, tert-butyl 4-(2-(2-(1H-imidazol-4-yl)phenoxy)ethyl) piperidine-1-carboxylate]
20 to 100 µM	Fc1cc(F)cc(-c2c[nH]cn2)c1 [Compound 59, 4-(3,5-difluorophenyl)-1H-imidazole]
100 to 500 µM	CC(=O)NCCCCn1cncc1-c1ccccc1 [Compound 127, N-(4-(5-phenyl-1H-imidazol-1-yl)butyl)acetamide]
20 to 100 µM	N#Cc1cccc(COc2ccccc2-c2c[nH]cn2)c1 [Compound 74, 3-((2-(1H-imidazol-4-yl)phenoxy)methyl)benzonitrile]
< 20 µM	Oc1cccc(Cn2cncc2-c2ccccc2)c1 [Compound 51, 3-((5-phenyl-1H-imidazol-1-yl)methyl)phenol]
100 to 500 µM	O=C(O)c1ccc(-c2c[nH]cn2)cc1 [Compound 119, 4-(1H-imidazol-4-yl)benzoic acid]
< 20 µM	CC(C)(C)CCn1cncc1-c1ccccc1 [Compound 32, 1-(3,3-dimethylbutyl)-5-phenyl-1H-imidazole]
20 to 100 µM	Oc1cc(Cl)ccc1-c1cnc[nH]1 [Compound 63, 5-chloro-2-(1H-imidazol-5-yl)phenol]
20 to 100 µM	CC(C)(C)OC(=O)NCCCCn1cncc1-c1ccccc1 [Compound 86, tert-butyl 4-(5-phenyl-1H-imidazol-1-yl)butylcarbamate]

IC50	Structure (SMILES)
100 to 500 µM	c1cnc(NCCCOc2ccccc2-c2cnc[nH]2)nc1 [Compound 98, N-(3-(2-(1H-imidazol-5-yl)phenoxy)propyl)pyrimidin-2-amine]
20 to 100 µM	c1ccc(CCCn2cncc2-c2ccccc2)cc1 [Compound 64, 5-phenyl-1-(3-phenylpropyl)-1H-imidazole]
100 to 500 µM	CNC(=O)CCCn1cncc1-c1ccccc1 [Compound 128, N-methyl-4-(5-phenyl-1H-imidazol-1-yl)butanamide]
< 20 µM	Oc1c(Br)cccc1-c1cnc[nH]1 [Compound 35, 2-bromo-6-(1H-imidazol-5-yl)phenol]
20 to 100 µM	CC(=O)NCc1ccc(COc2ccccc2-c2c[nH]cn2)cc1 [Compound 154, N-(4-((2-(1H-imidazol-4-yl)phenoxy)methyl)benzyl) acetamide]
< 20 µM	O=C(NCc1ccccc1-c1c[nH]cn1)c1ccccc1Cl [Compound 30, N-(2-(1H-imidazol-4-yl)benzyl)-2-chlorobenzamide]
< 20 µM	Cc1cccc(COc2ccccc2-c2cnc[nH]2)c1 [Compound 48, 5-(2-(3-methylbenzyloxy)phenyl)-1H-imidazole]
< 20 µM	CNC(=O)c1ccc(CCOc2ccccc2-c2c[nH]cn2)cc1 [Compound 45, 4-(2-(2-(1H-imidazol-4-yl)phenoxy)ethyl)-N-methylbenzamide]
100 to 500 µM	CS(=O)(=O)Nc1ccccc1-c1c[nH]cn1 [Compound 101, N-(2-(1H-imidazol-4-yl)phenyl)methanesulfonamide]
100 to 500 µM	CC(C)(CCOc1ccccc1-c1cnc[nH]1)CCn1ccnc1 [Compound 163, 5-(2-(5-(1H-imidazol-1-yl)-3,3-dimethylpentyloxy)phenyl)-1H-imidazole]
20 to 100 µM	Clc1ccccc1OCCc1ccccc1-c1c[nH]cn1 [Compound 149, 4-(2-(2-(2-chlorophenoxy)ethyl)phenyl)-1H-imidazole]
< 20 µM	Brc1cccc(-c2cnc[nH]2)c1 [Compound 27, 5-(3-bromophenyl)-1H-imidazole]
20 to 100 µM	CC(C)(CCNc1ccncc1)CCOc1ccccc1-c1cnc[nH]1 [Compound 164, N-(5-(2-(1H-imidazol-5-yl)phenoxy)-3,3-dimethylpentyl) pyridin-4-amine]
20 to 100 µM	N#Cc1cccc(-c2c[nH]cn2)c1 [Compound 94, 3-(1H-imidazol-5-yl)benzonitrile]
20 to 100 µM	CS(=O)(=O)N1CCC(COc2ccccc2-c2c[nH]cn2)CC1 [Compound 84, 4-((2-(1H-imidazol-4-yl)phenoxy)methyl)-1-(methylsulfonyl)piperidine]
< 20 µM	Sc1ccccc1-c1c[nH]cn1 [Compound 23, 2-(1H-imidazol-5-yl) benzenethiol]
20 to 100 µM	CC(C)(CCOc1ccccc1-c1c[nH]cn1)CCN1CCOCC1 [Compound 161, 4-(5-(2-(1H-imidazol-4-yl)phenoxy)-3,3-dimethylpentyl) morpholine]
100 to 500 µM	NCCn1cncc1-c1ccccc1 [Compound 118, 2-(5-phenyl-1H-imidazol-1-yl)ethanamine]

Structure (SMILES)	IC50
CC(C)(C)CCOc1c(Br)cccc1-c1c[nH]cn1 [Compound 26, 4-(3-bromo-2-(3,3-dimethylbutoxy)phenyl)-1H-imidazole]	< 20 µM
